Source: article PMC11662004 (Communications Chemistry, 2024)
Values joined by “and” are separate entries in the source; they are usually repeats but may differ in a detail not shown here. Equal values may be shown once. Read-outs that look alike come from different tables or passages of the source. Positions of bridges follow the written chain, without caps; N, C: chain ends. Non-standard residues stand in square brackets, D forms with d. Residues, ends and D or L forms follow the SMILES beside them.

Tests used:
NgTet1 [1] = biological target: T1, NgTet1 (Naegleria gruberi, UniProt D2W6T1); experiment: biochemical; settings: for normalised activity: NgTet1, NMR, 2 independent replicates
T1 construct: His6-tagged full-length Naegleria gruberi NgTet1 (321 a. a.) protein with a thrombin cleavage site; made in house; host or cells: E. coli BL21(DE3)
T1 sequence (D2W6T1 1-321): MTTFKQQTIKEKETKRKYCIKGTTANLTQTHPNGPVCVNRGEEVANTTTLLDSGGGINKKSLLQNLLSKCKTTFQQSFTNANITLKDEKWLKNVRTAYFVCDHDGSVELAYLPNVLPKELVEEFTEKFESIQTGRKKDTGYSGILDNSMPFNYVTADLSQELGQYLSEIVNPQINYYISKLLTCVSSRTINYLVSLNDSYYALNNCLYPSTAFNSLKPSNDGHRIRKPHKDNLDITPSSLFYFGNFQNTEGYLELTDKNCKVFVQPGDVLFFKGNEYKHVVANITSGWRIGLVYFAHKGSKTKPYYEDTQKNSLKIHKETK
Experimental: (§1) Activity was normalised against reactions containing vehicle (DMSO). […] AS data shown as the mean of three experimental replicates (n = 3; mean ± SD); ^1H NMR data plotted from two independent replicates (n = 2); tabulated data reported as the mean of two and three independent replicates for ^1H NMR and AS, respectively (n = 2–3, SD reported for n = 3). N. d.: not determined; AS: AlphaScreen.
(§2) All ^1H NMR spectra were recorded at 25 °C using D2O as a reference for internal deuterium lock on a Bruker Avance III 700 MHz equipped with an inverse TCI cryoprobe in 3 or 5 mm diameter tubes with a total sample volume of 160 or 565 μL, respectively. The water signal was reduced using Perfect Echo excitation sculpting suppression. Chemical shifts are reported in ppm relative to D2O (δH = 4.70 ppm).
NgTet1 was pre-incubated with inhibitor dilution series in DMSO-d6 at room temperature for 10 min (50 mM Tris-d11 [pH 7.5], 2% v/v DMSO-d6). Reactions were initiated by the addition of appropriate cofactors and DNA. […] The reactions were quenched by the addition of 9 mM NOG and 9 mM ZnCl2 in 90 mM Tris-d11 [pH 7.5] (20 μL) within the enzyme linear activity window (determined in Figure. S10). Samples were transferred to NMR tubes and subjected to ^1H NMR analysis. Data were processed as described above. Inhibition data was normalised to reactions containing vehicle only (1% v/v DMSO-d6) and fitted using “log(inhibitor) vs. response - Variable slope (four parameters)” non-linear regression model on GraphPad Prism 5.
Activity was normalised against reactions containing vehicle only (100% activity). Data is shown as the mean of 2 independent replicates (n = 2; […]
Fig. S10 Determination of linear NgTet1 enzymatic activity windows for inhibitor characterisation. a 1H NMR succinate detection time courses with no DNA, 5HC DNA (double- […]
complementary 5'-ACC AC5mC GGT GGT-3'). b AlphaScreen 5hmC detection time course using […]
courses shown. 1H NMR reaction conditions: 5 μM NgTet1, 2 mM sodium L-ascorbate, 100 μM […]
v/v D2O. DNA was added to a final concentration of 20 μM of double-stranded DNA. […]

NgTet1 [2] = biological target: T1, NgTet1; experiment: biochemical
Experimental: (Fig. 5a), were screened for inhibitory activity against NgTet1.
as §1
Compounds in DMSO (100 nL) were pre-dispensed in a logarithmically linear concentration gradient onto 384-well ProxiPlates using an Echo® 550 acoustic liquid handler (Labcyte). NgTet1 was pre-incubated with the inhibitor dilution series in DMSO at room temperature for 10 min. Reactions were initiated by the addition of appropriate cofactors and DNA. […] The reactions were quenched by the addition of 30 mM EDTA (pH 4.2), 358 mM NaCl (5 μL) within the enzyme linear activity window (determined in Fig. S10). Concurrently, a mixture containing the anti-^5hmC antibody (1:2000 dilution) and AlphaScreen beads (1:62.5 dilution) in assay buffer was prepared and incubated at room temperature for 30 min. The AlphaScreen bead/antibody mixture was added to the quenched NgTet1 reactions (5 μL), and the complete mixture was incubated at room temperature for 1 h. Chemiluminescence was measured on a PHERAstar FS/FSX (BMG Labtech) equipped with an AlphaScreen 680 570 module. All AlphaScreen bead manipulations were performed under subdued lighting. Inhibition data was normalised to reactions containing vehicle only (1% v/v DMSO) and fitted using “log(inhibitor) vs. response—Variable slope (four parameters)” non-linear regression model on GraphPad Prism 5.

NgTet1 [3] = biological target: T1, NgTet1; format: biochemical; settings: for Km: read-out: KM^app (2OG)
Experimental: Double-stranded 12 bp DNA oligomers were added at a final concentration of 20 µM. […]
Double-stranded DNA oligomers were added at a final concentration of 20 µM. […]
as §2
Spectrometer settings were determined using a control sample containing all reaction components excluding enzyme. TET enzyme was added to an identical sample, and the resulting assay mixture was transferred to an NMR tube before deposition into the instrument. […] Spectrum recordings were carried out consecutively without delay. Data were processed using automated routines on MestReNova v14.2.0; signals of interest were integrated with absolute intensity scaling. ^1H NMR time courses reported in figures are representative results from two or three independent replicates.

SMILES: CC[C@H](C)[C@@H]1NC(=O)[C@H](CC(C)C)NC(=O)[C@@H](Cc2ccc(O)cc2)NC(=O)CSC[C@@H](C(N)=O)NC(=O)[C@H](CO)NC(=O)[C@H](Cc2c[nH]cn2)NC(=O)[C@H](CCC(=O)O)NC(=O)[C@H](Cc2c[nH]c3ccccc23)NC(=O)[C@H](Cc2c[nH]c3ccccc23)NC(=O)[C@H]([C@@H](C)O)NC(=O)[C@H](Cc2ccc(O)cc2)NC(=O)[C@H](Cc2ccc(O)cc2)NC(=O)[C@H](C)NC(=O)[C@H](Cc2ccc(O)cc2)NC1=O [TiP1] ({CH2CO}-[dY]LIYAYYTWWEHSC-NH2; thioether N-14)
- uncoupled 2OG decarboxylase activity relative to control (NgTet1 [1]; 1.2 equivalents (6.17 μM) of ligand, no 5mC DNA substrate): 137%
- normalised activity, % (NgTet1 [1]; 5mC DNA, NMR, -Log[inhibitor] (M) 3.30103): 0.3831% and 0.8644%
- normalised activity, % (NgTet1 [1]; 5mC DNA, NMR, -Log[inhibitor] (M) 3.77815): 0%
- normalised activity, % (NgTet1 [1]; 5mC DNA, NMR, -Log[inhibitor] (M) 4.25527): 7.31% and 14.7287%
- normalised activity, % (NgTet1 [1]; 5mC DNA, NMR, -Log[inhibitor] (M) 4.73239): 78.5121% and 83.5696%
- normalised activity, % (NgTet1 [1]; 5mC DNA, NMR, -Log[inhibitor] (M) 5.20951): 98.5224% and 104.299%
- normalised activity, % (NgTet1 [1]; 5mC DNA, NMR, -Log[inhibitor] (M) 5.68664): 102.213% and 96.5096%
- normalised activity, % (NgTet1 [1]; 5mC DNA, NMR, -Log[inhibitor] (M) 6.16376): 101.348% and 99.8653%
- normalised activity, % (NgTet1 [1]; 5mC DNA, NMR, -Log[inhibitor] (M) 6.64088): 101.5% and 99.6319%
- normalised activity, % (NgTet1 [1]; 5mC DNA, NMR, -Log[inhibitor] (M) 7.118): 99.9781% and 101.169%
- normalised activity, % (NgTet1 [1]; 5mC DNA, NMR, -Log[inhibitor] (M) 7.59512): 101.989% and 101.514%
- normalised activity (NgTet1 [1]; -Log[inhibitor] (M) 3.30103): 1.539% and 0.6062%
- normalised activity (NgTet1 [1]; -Log[inhibitor] (M) 3.77815): 5.644% and 0.04671%
- normalised activity (NgTet1 [1]; -Log[inhibitor] (M) 4.25527): 23.0301% and 11.8368%
- normalised activity (NgTet1 [1]; -Log[inhibitor] (M) 4.73239): 129.261% and 95.1469%
- normalised activity (NgTet1 [1]; -Log[inhibitor] (M) 5.20951): 124.894% and 132.33%
- normalised activity (NgTet1 [1]; -Log[inhibitor] (M) 5.68664): 97.9138% and 111.807%
- normalised activity (NgTet1 [1]; -Log[inhibitor] (M) 6.16376): 101.603% and 106.324%
- normalised activity (NgTet1 [1]; -Log[inhibitor] (M) 6.64088): 102.045% and 105.397%
- normalised activity (NgTet1 [1]; -Log[inhibitor] (M) 7.118): 107.511% and 102.971%
- normalised activity (NgTet1 [1]; -Log[inhibitor] (M) 7.59512): 96.6941%
- IC50 (NgTet1 [1]; IC50, 5mC DNA, NMR, 2OG decarboxylation with 20 µM 5mC DNA, 5 μM NgTet1, 50 μM 2OG): 28.8 µM
- IC50 (NgTet1 [1]; IC50, No DNA, NMR, uncoupled 2OG decarboxylation, no DNA, 5 μM NgTet1, 50 μM 2OG): 26.3 µM
- IC50 (NgTet1 [1]; IC50 across all assays, AS and 1H NMR assays): 26 to 29 µM
- normalised activity, % (NgTet1 [1]; No DNA, NMR, -Log[inhibitor] (M) 3.30103): 1.539% and 0.6062%
- normalised activity, % (NgTet1 [1]; No DNA, NMR, -Log[inhibitor] (M) 3.77815): 5.644% and 0.04671%
- normalised activity, % (NgTet1 [1]; No DNA, NMR, -Log[inhibitor] (M) 4.25527): 23.0301% and 11.8368%
- normalised activity, % (NgTet1 [1]; No DNA, NMR, -Log[inhibitor] (M) 4.73239): 129.261% and 95.1469%
- normalised activity, % (NgTet1 [1]; No DNA, NMR, -Log[inhibitor] (M) 5.20951): 124.894% and 132.33%
- normalised activity, % (NgTet1 [1]; No DNA, NMR, -Log[inhibitor] (M) 5.68664): 97.9138% and 111.807%
- normalised activity, % (NgTet1 [1]; No DNA, NMR, -Log[inhibitor] (M) 6.16376): 101.603% and 106.324%
- normalised activity, % (NgTet1 [1]; No DNA, NMR, -Log[inhibitor] (M) 6.64088): 102.045% and 105.397%
- normalised activity, % (NgTet1 [1]; No DNA, NMR, -Log[inhibitor] (M) 7.118): 107.511% and 102.971%
- normalised activity, % (NgTet1 [1]; No DNA, NMR, -Log[inhibitor] (M) 7.59512): 96.6941%
- normalised activity, % (NgTet1 [1]; TiP1 statistical test, NMR, no DNA, NgTet1/TiP1 ratio 1:1.2, technical replicates): 140.602% and 133.857% and 142.6% and 131.935%
- normalised activity, % (NgTet1 [1]; TiP1 statistical test, NMR, no DNA, NgTet1/TiP1 ratio 1:3.7, technical replicates): 103.459% and 107.449% and 116.09% and 117.125%
- IC50 (NgTet1 [2]): 26.3 µM
- normalised activity, % (NgTet1 [2]; AlphaScreen, -Log[inhibitor] (M) 8.73132): 115.665% and 99.133% and 91.2094% and 100% and 99.1774% and 99.7728% and 97.6796%

SMILES: O=C(O)CCC(=O)C(=O)O [2OG, 2-oxoglutarate]
- decrease of 2OG KM^app on substrate saturation (NgTet1 [3]; 20 µM 5mC DNA vs no DNA): ~2 fold
- Vmax^app (NgTet1 [3]; No DNA): 2.83 µM/min
- kcat^app (NgTet1 [3]; No DNA): 0.0095 s⁻¹
- Km (NgTet1 [3]; No DNA, 5 μM NgTet1): 284 µM
- Km (NgTet1 [3]; with 20 µM 5mC DNA): 150 µM
- Vmax^app (NgTet1 [3]; with 20 µM 5mC DNA): 8.31 µM/min
